The values below are quoted from earlier work in patent US6461591B1, “Medical aerosol formulations” (Jago Research AG, priority 1997, dated 2002).

The conditions of the data set: at 20° C.

Regarding `FCC(F)(F)F` [HFA 134a, 1,1,1,2-tetrafluoroethane], the vapour pressure result is “about 6 bar”. As for `FC(C(F)(F)F)C(F)(F)F` [HFA 227, 1,1,1,2,3,3,3-heptafluoropropane], the density entry is reported as “about 1.4 mg/ml” and the vapour pressure entry is “about 4.2 bar”.
